Source: ChEMBL document CHEMBL3792313, “Rational design, synthesis and 2D-QSAR study of novel vasorelaxant active benzofuran-pyridine hybrids” (Bioorg Med Chem Lett, 2016)
Counter-ions that a name gives are not always drawn.

system: Thoracic aorta; experiment: Vasodilative activity in isolated Wistar rat thoracic aorta assessed as inhibition of norepinephrine hydrochloride-induced contraction; assay type: functional, tissue-based

| Structure (SMILES) | IC50 |
| --- | --- |
| COc1nc(-c2cc3ccccc3o2)cc(-c2ccccc2)c1C#N | 232 µM |
| COc1nc(-c2cc3ccccc3o2)cc(-c2ccc(Cl)cc2)c1C#N | 286 µM |
| CCOc1nc(-c2cc3ccccc3o2)cc(-c2ccc(Br)cc2)c1C#N | 227 µM |
| COc1ccc(OC)c(-c2cc(-c3cc4ccccc4o3)nc(OC)c2C#N)c1 | 246 µM |
| COc1cc(-c2cc(-c3cc4ccccc4o3)nc(OC)c2C#N)cc(OC)c1OC | 310 µM |
| COc1ccc(-c2cc(-c3cc4ccccc4o3)nc(OC)c2C#N)c(OC)c1 | 425 µM |
| CCOc1nc(-c2cc3ccccc3o2)cc(-c2cc(OC)c(OC)c(OC)c2)c1C#N | 365 µM |
| CCOc1nc(-c2cc3ccccc3o2)cc(-c2ccc(C)cc2)c1C#N | 290 µM |
| CCOc1nc(-c2cc3ccccc3o2)cc(-c2ccc3ccccc3c2)c1C#N | 423 µM |
| COc1nc(-c2cc3ccccc3o2)cc(-c2ccc(C)cc2)c1C#N | 266 µM |
| CCOc1nc(-c2cc3ccccc3o2)cc(-c2ccccc2)c1C#N | 310 µM |
| CCOc1nc(-c2cc3ccccc3o2)cc(-c2ccc(C)o2)c1C#N | 417 µM |
| COc1nc(-c2cc3ccccc3o2)cc(-c2ccc3ccccc3c2)c1C#N | 320 µM |
| CCCCc1oc2ccccc2c1C(=O)c1cc(I)c(OCCN(CC)CC)c(I)c1 [AMIODARONE HYDROCHLORIDE] | 312 µM |
| CCOc1nc(-c2cc3ccccc3o2)cc(-c2ccc(OC)cc2OC)c1C#N | 488 µM |
| COc1nc(-c2cc3ccccc3o2)cc(-c2cn(C)c3ccccc23)c1C#N | 262 µM |
| COc1nc(-c2cc3ccccc3o2)cc(-c2ccc(F)cc2)c1C#N | 321 µM |
| COc1nc(-c2cc3ccccc3o2)cc(-c2cccs2)c1C#N | 163 µM |
| CCOc1nc(-c2cc3ccccc3o2)cc(-c2ccc(OC)cc2)c1C#N | 204 µM |
| CCOc1nc(-c2cc3ccccc3o2)cc(-c2cn(C)c3ccccc23)c1C#N | 327 µM |

More lines, in order of falling IC50, values ahead:

| IC50 | Structure (SMILES) |
| --- | --- |
| 442 µM | CCOc1nc(-c2cc3ccccc3o2)cc(-c2ccc(Cl)cc2Cl)c1C#N |
| 396 µM | CCOc1nc(-c2cc3ccccc3o2)cc(-c2ccc(F)cc2)c1C#N |
| 359 µM | COc1nc(-c2cc3ccccc3o2)cc(-c2cccc3ccccc23)c1C#N |
| 358 µM | CCOc1nc(-c2cc3ccccc3o2)cc(-c2cn(CC)c3ccccc23)c1C#N |
| 344 µM | CCOc1nc(-c2cc3ccccc3o2)cc(-c2cccc3ccccc23)c1C#N |
| 338 µM | CCOc1nc(-c2cc3ccccc3o2)cc(-c2ccc(N(C)C)cc2)c1C#N |
| 327 µM | CCOc1nc(-c2cc3ccccc3o2)cc(-c2cc(OC)ccc2OC)c1C#N |
| 322 µM | COc1nc(-c2cc3ccccc3o2)cc(-c2ccc(Cl)cc2Cl)c1C#N |
| 308 µM | CCOc1nc(-c2cc3ccccc3o2)cc(-c2cccs2)c1C#N |
| 299 µM | CCn1cc(-c2cc(-c3cc4ccccc4o3)nc(OC)c2C#N)c2ccccc21 |
| 298 µM | COc1nc(-c2cc3ccccc3o2)cc(-c2ccc(Br)cc2)c1C#N |
| 285 µM | COc1nc(-c2cc3ccccc3o2)cc(-c2ccc(C)o2)c1C#N |
| 278 µM | COc1nc(-c2cc3ccccc3o2)cc(-c2ccc(N(C)C)cc2)c1C#N |
| 262 µM | COc1ccc(-c2cc(-c3cc4ccccc4o3)nc(OC)c2C#N)cc1 |
| 221 µM | CCOc1nc(-c2cc3ccccc3o2)cc(-c2ccc(Cl)cc2)c1C#N |
